These results are taken from PubChem BioAssay AID1959 (Broad Institute, 2009).

Molecules are shown by their SMILES. Calls of active or inactive are those of the source.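 The calls were made as follows: active = growth-inhibition EC50 no more than tenfold above the top tested dose; inconclusive = flat fit between 30% and 70% inhibition, or unreliable fit; inactive = EC50 more than tenfold above the top tested dose.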

The subject of the experiment is E. coli NEB5alpha growth, BacTiter-Glo luminescence, 4 h. As to the kind of experiment: Escherichia coli growth inhibition, dose response, counter-screen for MEX-5/POS-1 RNA-binding inhibitor project, luminescence, NEB5alpha (AID 1959).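 Also: pUC19-transformed ampicillin-resistant cells grown in LB with ampicillin.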 A general note: Counterscreens check selectivity or assay interference.
As to `C=CCOc1cccc(C2C(C(=O)c3ccc(C)o3)=C(O)C(=O)N2c2nnc(C)s2)c1` (stereo not given), the EC50 (commonly the concentration giving half of the maximal effect) is > 11 µM (inactive).

On to `CN(C)C1=NC(=O)/C(=C/c2ccc(-c3ccc(S(N)(=O)=O)cc3)o2)S1`, for which the EC50 is > 11 µM (inactive).

For `CSc1nsc2nc(=O)c(/C=C3\C=Nc4ccccc43)c(N)n12`, the EC50 is > 11 µM (inactive).

As to `Cc1ccc(N=Cc2nc(-c3ccc(C)cc3)oc2O)cc1`, the EC50 is > 11 µM (inactive).

On to `N=C1/C(=C\c2ccc(SCc3ccco3)o2)C(=O)N=C2SC=NN12`, for which the EC50 was > 11 µM (inactive).

For the compound `O=C(N/N=C\c1c(O)ccc2ccccc12)c1cncc(Br)c1`, the EC50 was > 11 µM (inactive).

Consider `COC(=O)CNC(=O)C1Nc2ccccc2C2C=CCC12` (stereo not given), for which the EC50 is > 11 µM (inactive).

For the compound `C=CCOn1c(=O)c(-c2cc3ccccc3o2)[n+]([O-])c2ccccc21`, the EC50 is > 11 µM (inactive).

Regarding `COc1ccc(Nc2ncnc3nc[nH]c23)cc1OC`, the EC50 was > 11 µM (inactive).

Consider `c1ccc2[nH]c3cc4ncnc4cc3nc2c1`, for which the EC50 is > 11 µM (inactive).

Turning to `O=C(NCc1ccccn1)C1Nc2ccc(C(F)(F)F)cc2C2C=CCC12` (stereo not given), the EC50 is > 11 µM (inactive).

With `Cc1ncc(CO)c(/C=N/NC(=O)c2cc(O)c(O)c(O)c2)c1O`, the EC50 is > 11 µM (inactive).

In the case of `Cc1cc(/C=C2\C(=O)NC(=O)N(c3ccccc3)C2=O)c(C)n1-c1ccc(C(=O)O)c(Cl)c1`, the EC50 was > 11 µM (inactive).

`Cc1cc([N+](=O)[O-])ccc1-c1ccc(/C=N/NC(=O)c2ccc(Br)o2)o1`: the EC50 was > 11 µM (inactive).

For the compound `O=C(Nc1ccccc1O)c1cccc(S(=O)(=O)Nc2ccccc2O)c1`, the EC50 was > 11 µM (inactive).

Turning to `CN1CCc2cc3c(c4c2C1Cc1ccccc1-4)OCO3` (stereo not given), the EC50 was > 11 µM (inactive).

In the case of `C=CCn1c(O)c(/C=C/C=Nc2ccccc2)c(=O)[nH]c1=O`, the EC50 is > 11 µM (inactive).

With `COc1ccc(CCn2c(O)c(/C=N/NC(=O)c3ccncc3)c(=O)[nH]c2=O)cc1OC`, the EC50 is > 11 µM (inactive).

Regarding `CN1CCc2cccc3c2[C@H]1Cc1ccc(O)c(O)c1-3`, the EC50 was > 11 µM (inactive).

As to `COc1cc(C(c2c(C(=O)O)[nH]c3ccccc23)c2c(C(=O)O)[nH]c3ccccc23)ccc1OCc1ccccc1`, the EC50 was > 11 µM (inactive).

For the compound `CCOc1ccc(-n2c(O)c(C=Nc3ccc(N4CCOCC4)cc3)c(=O)[nH]c2=O)cc1`, the EC50 was > 11 µM (inactive).

Consider `Cc1ccc(N(C)S(=O)(=O)c2c(C)noc2/C=C/N(C)C)cc1`, for which the EC50 was > 11 µM (inactive).

For `O=C1c2ccccc2S(=O)(=O)c2cc(N3CCC(C(=O)N4CCCCC4)CC3)ccc21`, the EC50 is > 11 µM (inactive).

For the compound `CCN1C(=O)/C(=C2\SC(=S)N(NC(=O)c3ccccc3O)C2=O)c2ccccc21`, the EC50 was > 11 µM (inactive).

In the case of `CCn1c(/C=C/c2c(C)[nH]c3ccccc23)nc2ccccc2c1=O`, the EC50 was > 11 µM (inactive).

Take `Cc1cc(CC(C)C)n(-c2nc3ccccc3c(=O)n2OCc2ccccc2)n1`: the EC50 is > 11 µM (inactive).

With `O=c1[nH]c(=O)n(Cc2ccccc2)c(O)c1C=Nc1ccc(CN2CCOCC2)cc1`, the EC50 was > 11 µM (inactive).

For `Cn1c(O)c(/C=C2/C=CC=N2)c(=O)[nH]c1=O`, the EC50 is > 11 µM (inactive).

On to `C=CCn1ccc(=NC=C(C#N)C#N)c2ccccc21`, for which the EC50 was > 11 µM (inactive).

On to `Cc1cccn2c(=O)c3cc(C(=O)NC4CCCC4)c(=N)n(CCc4ccccc4)c3nc12`, for which the EC50 is > 11 µM (inactive).

For the compound `COc1cccc(NC(=O)c2ccccc2Br)c1`, the EC50 was > 11 µM (inactive).

With `COc1ccc(OC)c(C2=C/C(=C/c3ccccn3)C(=O)O2)c1`, the EC50 is > 11 µM (inactive).

Take `CC(C)(C)OC(=O)NCCCC1=CC2=CC(=O)C(C)(OC(=O)c3ccco3)C(=O)C2=CO1` (stereo not given): the EC50 is > 11 µM (inactive).

Turning to `O=C1NC(=O)N(c2ccccc2F)C(=O)/C1=C/c1cn(CC(=O)N2CCOCC2)c2ccccc12`, the EC50 is > 11 µM (inactive).

As to `CCOc1cc(C2C(C#N)=C(N)OC3=C2C(=O)CC(C)(C)C3)cc([N+](=O)[O-])c1O` (stereo not given), the EC50 is > 11 µM (inactive).

With `O=[N+]([O-])c1ccccc1S(=O)(=O)n1nnc2ccccc21`, the EC50 is > 11 µM (inactive).

As to `O=C1c2ccccc2C(=O)C1c1ccc2ccccc2n1`, the EC50 was > 11 µM (inactive).

Regarding `O=[N+]([O-])c1cccc(/C=C/c2nc(C=Nc3ccccc3)c(O)o2)c1`, the EC50 was > 11 µM (inactive).

As for `CC1(OC(=O)c2ccco2)C(=O)C=C2C=C(C3CC3)OC=C2C1=O` (stereo not given), the EC50 is > 11 µM (inactive).

Take `CCOc1c(C=C(C#N)C#N)c2ccccc2n1CC`: the EC50 is > 11 µM (inactive).

As to `CCOc1cc(/C=C(\C#N)c2nc3ccccc3[nH]2)ccc1OC(C)C(=O)O` (stereo not given), the EC50 was > 11 µM (inactive).

`Cc1ccccc1NC(=O)/C(C#N)=C/c1ccc(-c2ccc(Cl)c(C(=O)O)c2)o1`: the EC50 was > 11 µM (inactive).

For `COc1ccccc1CCC(=O)OCc1csc(CC(=O)Nc2ccccc2C)n1`, the EC50 is > 11 µM (inactive).

In the case of `CC1(OC(=O)C2CCCC2)C(=O)C=C2C=C(c3ccsc3)OC=C2C1=O` (stereo not given), the EC50 was > 11 µM (inactive).

Regarding `N#CC1=C(N)OC2=C(C(=O)CCC2)[C@]12C(=O)N(CC(N)=O)c1ccccc12`, the EC50 was > 11 µM (inactive).

Turning to `O=C(O)c1ccc2c3c(ncnc13)-c1ccccc1C2=O`, the EC50 was > 11 µM (inactive).

As for `COc1ccc(Nc2nc(-c3cccnc3)nc3ccccc23)cn1`, the EC50 was > 11 µM (inactive).

Consider `CC(NC(=O)COc1ccccc1)C(=O)OCC(=O)c1cc2ccccc2o1` (stereo not given), for which the EC50 was > 11 µM (inactive).

With `CCOC(=O)c1cc(=O)n2nc(-c3ccc(C)cc3)nc2s1`, the EC50 was > 11 µM (inactive).

For `Cc1cc(C)c[n+](-c2[nH]c(=O)sc2/C=N/NC([S-])=Nc2ccccc2)c1`, the EC50 was > 11 µM (inactive).

For `CC1(C)CC(=O)C2=C(C1)OC(N)=C(C#N)[C@@H]2c1ccccc1[N+](=O)[O-]`, the EC50 was > 11 µM (inactive).

As for `Fc1ccc(-c2nc3c(Cl)cc(C(F)(F)F)cn3c2Cl)cc1`, the EC50 is > 11 µM (inactive).

For `CN(C)c1ccc(/C=C(\C#N)C(=O)NCc2ccco2)cc1`, the EC50 is > 11 µM (inactive).

For `NS(=O)(=O)c1ccc(-c2ccc(/C=C3\SC(=O)NC3=O)o2)cc1`, the EC50 is > 11 µM (inactive).

For the compound `CCc1ccccc1N1C(=O)NC(=O)/C(=C\c2cc(C)n(C)c2C)C1=O`, the EC50 is > 11 µM (inactive).

Consider `COC(=O)CCCC1=CC2=CC(=O)C(C)(OC(=O)CCc3ccccc3)C(=O)C2=CO1` (stereo not given), for which the EC50 was > 11 µM (inactive).

As to `Oc1ccc(/C=C/c2cc(O)cc(O)c2)cc1`, the EC50 is > 11 µM (inactive).

Turning to `COc1ccc(CCNC(=O)c2cc3c(=O)n4cccc(C)c4nc3n(CCCN3CCOCC3)c2=N)cc1`, the EC50 was > 11 µM (inactive).

For the compound `N#CC1=C(N)Oc2cc(O)c(Cl)cc2C1c1ccccc1F` (stereo not given), the EC50 is > 11 µM (inactive).

Take `O=C(NNC(=O)c1cnccn1)c1cccc([N+](=O)[O-])c1`: the EC50 was > 11 µM (inactive).
